Reference: the supplement of paper PMC10307832

How the values were obtained:
Experiment in all cases: relative viability (nuclei count vs DMSO), 5 days (fraction); higher = more cells survive
LXF-289 = system: LXF-289
Summary of the method: (§1)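 Lung cancer cell lines, seeded in 1536-well plates, were treated the following day by pin tool with a single drug or with five library-drug doses (not always all listed) in √10 steps on top of a fixed anchor-drug dose. Cells were fixed and nuclei stained in one step after 5 days, and nuclei were counted. Relative viability is the nuclei count for treated wells divided by that for vehicle wells, reported as medians of duplicate plates.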

LCLC-103H = system: LCLC-103H
Summary of the method: as §1

NCI-H1650 = system: NCI-H1650
Summary of the method: as §1

SK-LU-1 = system: SK-LU-1
Summary of the method: as §1

NCI-H1437 = system: NCI-H1437
Summary of the method: as §1

HCC-827 = system: HCC-827
Summary of the method: as §1

LCLC-97TM1 = system: LCLC-97TM1
Summary of the method: as §1

NCI-H3122 = system: NCI-H3122
Summary of the method: as §1

NCI-H647 = system: NCI-H647
Summary of the method: as §1

NCI-H2405 = system: NCI-H2405
Summary of the method: as §1

NCI-H2087 = system: NCI-H2087
Summary of the method: as §1

NCI-H1793 = system: NCI-H1793
Summary of the method: as §1

NCI-H2228 = system: NCI-H2228
Summary of the method: as §1

NCI-H322M = system: NCI-H322M
Summary of the method: as §1

NCI-H1944 = system: NCI-H1944
Summary of the method: as §1

NCI-H1792 = system: NCI-H1792
Summary of the method: as §1

NCI-H1395 = system: NCI-H1395
Summary of the method: as §1

201T = system: 201T
Summary of the method: as §1

RERF-LC-KJ = system: RERF-LC-KJ
Summary of the method: as §1

BEN = system: BEN
Summary of the method: as §1

CAL-12T = system: CAL-12T
Summary of the method: as §1

Question: What does the source list for `COc1cc2nccc(Oc3ccc(NC(=O)Nc4cc(C)on4)c(Cl)c3)c2cc1OC` [Tivozanib] + Nc1nc2[nH]cc(CCc3ccc(C(=O)N[C@@H](CCC(=O)O)C(=O)O)cc3)c2c(=O)[nH]1 [Pemetrexed] (partner 0.2 µM)?
Answer: relative viability (LXF-289; first compound 0.005 µM): 0.853; relative viability (LXF-289; first compound 0.01581 µM): 0.9; relative viability (LXF-289; first compound 0.05 µM): 0.929; relative viability (LXF-289; first compound 0.1581 µM): 1.04; relative viability (LXF-289; first compound 0.5 µM): 0.887; relative viability (LCLC-103H; first compound 0.005 µM): 0.453; relative viability (LCLC-103H; first compound 0.01581 µM): 0.508; relative viability (LCLC-103H; first compound 0.05 µM): 0.49; relative viability (LCLC-103H; first compound 0.1581 µM): 0.459; relative viability (LCLC-103H; first compound 0.5 µM): 0.46; relative viability (NCI-H1650; first compound 0.005 µM): 0.362; relative viability (NCI-H1650; first compound 0.01581 µM): 0.342; relative viability (NCI-H1650; first compound 0.05 µM): 0.384; relative viability (NCI-H1650; first compound 0.1581 µM): 0.309; relative viability (NCI-H1650; first compound 0.5 µM): 0.354; relative viability (SK-LU-1; first compound 0.005 µM): 1; relative viability (SK-LU-1; first compound 0.01581 µM): 0.928; relative viability (SK-LU-1; first compound 0.05 µM): 0.997; relative viability (SK-LU-1; first compound 0.1581 µM): 0.905; relative viability (SK-LU-1; first compound 0.5 µM): 0.991; relative viability (NCI-H1437; first compound 0.005 µM): 0.251; relative viability (NCI-H1437; first compound 0.01581 µM): 0.287; relative viability (NCI-H1437; first compound 0.05 µM): 0.366; relative viability (NCI-H1437; first compound 0.1581 µM): 0.313; relative viability (NCI-H1437; first compound 0.5 µM): 0.31; relative viability (HCC-827; first compound 0.005 µM): 0.266; relative viability (HCC-827; first compound 0.01581 µM): 0.255; relative viability (HCC-827; first compound 0.05 µM): 0.242; relative viability (HCC-827; first compound 0.1581 µM): 0.259; relative viability (HCC-827; first compound 0.5 µM): 0.253; relative viability (LCLC-97TM1; first compound 0.005 µM): 0.183; relative viability (LCLC-97TM1; first compound 0.01581 µM): 0.178; relative viability (LCLC-97TM1; first compound 0.05 µM): 0.157; relative viability (LCLC-97TM1; first compound 0.1581 µM): 0.172; relative viability (LCLC-97TM1; first compound 0.5 µM): 0.148; relative viability (NCI-H3122; first compound 0.005 µM): 0.197; relative viability (NCI-H3122; first compound 0.01581 µM): 0.222; relative viability (NCI-H3122; first compound 0.05 µM): 0.198; relative viability (NCI-H3122; first compound 0.1581 µM): 0.204; relative viability (NCI-H3122; first compound 0.5 µM): 0.19; relative viability (NCI-H647; first compound 0.005 µM): 0.155; relative viability (NCI-H647; first compound 0.01581 µM): 0.207; relative viability (NCI-H647; first compound 0.05 µM): 0.152; relative viability (NCI-H647; first compound 0.1581 µM): 0.189; relative viability (NCI-H647; first compound 0.5 µM): 0.149; relative viability (NCI-H2405; first compound 0.005 µM): 1.05; relative viability (NCI-H2405; first compound 0.01581 µM): 1.13; relative viability (NCI-H2405; first compound 0.05 µM): 1.09; relative viability (NCI-H2405; first compound 0.1581 µM): 1.01; relative viability (NCI-H2405; first compound 0.5 µM): 0.792; relative viability (NCI-H2087; first compound 0.005 µM): 0.654; relative viability (NCI-H2087; first compound 0.01581 µM): 0.696; relative viability (NCI-H2087; first compound 0.05 µM): 0.66; relative viability (NCI-H2087; first compound 0.1581 µM): 0.7; relative viability (NCI-H2087; first compound 0.5 µM): 0.653; relative viability (NCI-H1793; first compound 0.005 µM): 0.643; relative viability (NCI-H1793; first compound 0.01581 µM): 0.854; relative viability (NCI-H1793; first compound 0.05 µM): 1.04; relative viability (NCI-H1793; first compound 0.5 µM): 0.999; relative viability (NCI-H2228; first compound 0.005 µM): 0.31; relative viability (NCI-H2228; first compound 0.01581 µM): 0.32; relative viability (NCI-H2228; first compound 0.05 µM): 0.369; relative viability (NCI-H2228; first compound 0.1581 µM): 0.346; relative viability (NCI-H2228; first compound 0.5 µM): 0.315; relative viability (NCI-H322M; first compound 0.005 µM): 0.586; relative viability (NCI-H322M; first compound 0.01581 µM): 0.621; relative viability (NCI-H322M; first compound 0.05 µM): 0.588; relative viability (NCI-H322M; first compound 0.1581 µM): 0.635; relative viability (NCI-H322M; first compound 0.5 µM): 0.602; relative viability (NCI-H1944; first compound 0.005 µM): 0.545; relative viability (NCI-H1944; first compound 0.01581 µM): 0.568; relative viability (NCI-H1944; first compound 0.05 µM): 0.652; relative viability (NCI-H1944; first compound 0.1581 µM): 0.659; relative viability (NCI-H1944; first compound 0.5 µM): 0.611; relative viability (NCI-H1792; first compound 0.005 µM): 0.865; relative viability (NCI-H1792; first compound 0.01581 µM): 0.792; relative viability (NCI-H1792; first compound 0.05 µM): 1.02; relative viability (NCI-H1792; first compound 0.5 µM): 1; relative viability (NCI-H1395; first compound 0.005 µM): 0.89; relative viability (NCI-H1395; first compound 0.01581 µM): 1.02; relative viability (NCI-H1395; first compound 0.05 µM): 0.938; relative viability (NCI-H1395; first compound 0.1581 µM): 0.775; relative viability (NCI-H1395; first compound 0.5 µM): 0.579; relative viability (201T; first compound 0.005 µM): 0.314; relative viability (201T; first compound 0.01581 µM): 0.319; relative viability (201T; first compound 0.05 µM): 0.351; relative viability (201T; first compound 0.1581 µM): 0.351; relative viability (201T; first compound 0.5 µM): 0.367; relative viability (RERF-LC-KJ; first compound 0.005 µM): 0.465; relative viability (RERF-LC-KJ; first compound 0.01581 µM): 0.441; relative viability (RERF-LC-KJ; first compound 0.05 µM): 0.479; relative viability (RERF-LC-KJ; first compound 0.1581 µM): 0.465; relative viability (RERF-LC-KJ; first compound 0.5 µM): 0.439; relative viability (BEN; first compound 0.005 µM): 0.647; relative viability (BEN; first compound 0.01581 µM): 0.858; relative viability (BEN; first compound 0.05 µM): 0.834; relative viability (BEN; first compound 0.1581 µM): 0.397; relative viability (BEN; first compound 0.5 µM): 0.689; relative viability (CAL-12T; first compound 0.005 µM): 1.25; relative viability (CAL-12T; first compound 0.01581 µM): 1.15; relative viability (CAL-12T; first compound 0.05 µM): 1.13; relative viability (CAL-12T; first compound 0.1581 µM): 1.13; relative viability (CAL-12T; first compound 0.5 µM): 1.12
